Reference: paper PMC10531915, “A High-Throughput Small-Angle X-ray Scattering Assay to Determine the Conformational Change of Plasminogen” (International Journal of Molecular Sciences, 2023)
Values joined by “and” are separate entries in the source; they are usually repeats but may differ in a detail not shown here. Identical values can stand only once. “Also recorded” adds a separate entry of the source.

Experiments:
Plg GII = assay: HTP 96-well SAXS titration: ligand-induced closed-to-open conformational change of Plg GII; assay type: biochemical, human; conditions: for Plg conformational change (efficacy in words) / Rg: HTP SAXS; for Plg conformational change (efficacy in words): 0.5 mg/mL Plg, pH 7.4, 16 °C, MK12 up to 10 mM; for Kopen: concentration of ligand at which 50% of Plg GII is open, 0.5 mg/mL Plg GII, 100 mM sodium phosphate pH 7.4, 5% glycerol, 15–30 min incubation, 16 °C, Rg from SAXS, fit with Hill slope; for Fold (GII/GI) of Kopen: Kopen Plg GII / Kopen Plg GI; for Kopen for GII higher than for GI: Kopen Plg GII versus Plg GI; for Kopen of EACA relative to TXA, GII: EACA versus TXA; for Kopen fold lower than L-lysine: Kopen for L-lysine 7.47 ± 1.12 mM; on Rg: values in Å
Description: An HTP assay to study the kinetics of Plg conversion from a closed to an open state was established for this work using Plg GII (see Section 4 and Figure 2).
(§1) Figure 2 Overview of the high-throughput (HTP) kinetic studies of Plg conformational change. In this HTP assay, ligand-induced Plg conformational change is set up in a 96-well plate format. (a) Ligands at the study concentration are mixed with Plg and incubated for 30 min. (b,c) The samples flowed past the X-ray beam in a quartz capillary, and scattering images were collected. (d) The resulting 2D scattering profile is averaged and buffer subtracted. (e). Rg values are derived via Guinier analysis (f) and then normalized before plotting against ligand concentration. The plot is fitted to a multi-site binding model, and Kopen, the ligand concentration required to induce 50% open Plg, is derived. Kopen is a kinetic parameter indicative of ligand efficacy or stability of closed conformation.
(§2) EACA, TXA, and L-lysine were purchased from Sigma-Aldrich (St Louis, MO, USA), whereas peptides MK12, NK55, and CK10 were purchased from GL Biochem (Shanghai, China). Solutions of EACA, TXA, and L-lysine (0.5–1.0 M) were prepared in ultrapure water. The peptide ligands are slightly acidic and therefore were dissolved in 0.1 M NH4OH with gentle sonication. MK12 and CK10 were prepared as 20 mM stock solution, and NK55 was prepared as a 625 μM stock solution.
(§3) For the SEC-SAXS experiment, in-line size exclusion chromatography using a WTC-010S5 column (WYATT) with a co-flow setup was used. For the HTP assays, 1 mg/mL protein samples were mixed 1:1 (v/v) with effector solutions to a final volume of 50 μL in a 96-well plate and incubated for 15–30 min before data collection at 16 °C. The final protein concentration for these experiments was 0.5 mg/mL in the assay buffer unless otherwise specified.
For each sample, a matching buffer was used for background scatter subtraction. To minimize the effect of radiation damage, 50 μL samples were flowed past the X-ray beam in a 1.5 mm diameter quartz capillary at 4 μL.s^−1. Then, 15 to 20 2D scattering images were collected on a Pilatus 1M X-ray detector (Dectris, Baden-Daettwil, Swizerland) using 18 × 1 s exposures. The images were averaged, and the background was subtracted using the Scatterbrain software v.2.82 available at the Australian Synchrotron
For each titration series, the Rg values were normalized as follows: Normalized Rg=Rg− minimum Rg/maximum Rg− minimum Rg

Plg GI = assay: HTP 96-well SAXS titration: ligand-induced closed-to-open conformational change of Plg GI; assay type: biochemical, human; conditions: for Kopen: concentration of ligand at which 50% of Plg GI is open, 0.5 mg/mL Plg, 100 mM sodium phosphate pH 7.4, 5% glycerol, 15–30 min incubation, 16 °C, Rg from SAXS
Description: as §1
Thus, we also performed kinetics studies on GI and GII to verify this hypothesis using EACA and TXA in the HTP format (Figure S4, Table 1).
as §2, §3
For each sample, a matching buffer was used for background scatter subtraction. To minimize the effect of radiation damage, 50 μL samples were flowed past the X-ray beam in a 1.5 mm diameter quartz capillary at 4 μL.s^−1. […]

Plg = Plg activation by tPA with chromogenic substrate S-2251 (Kactivation); conditions: Kactivation by tPA compared to Kopen; 0.25 μM Plg, 0.01 μM tPA, 1 h, 28 °C, 0.2 mM S-2251, A405 nm
[1] = in vivo, up to, no reference given; cited from earlier work
Text: Importantly, our data support the notion that these lysine analogues can potentially outcompete the binding of Plg to its binding proteins Plg-RKT and α2AP (Figure S6) at a therapeutic dosage in vivo (plasma ...

[2] = tested on: Plg, mixed glycoform sample; conditions: cited from earlier work
Description: To analyze the transition profiles of Plg recorded from the fully closed to the fully open forms, we fitted the kinetic data as follows: the Rg of Plg GII in 0 mM EACA (32 Å) was defined as closed. The Rg of Plg in 20 m ...

[3] = SEC-SAXS and Guinier/P(r) analysis of Plg conformation; assay type: physicochemical, human; conditions: for Dmax (maximum diameter): P(r); for Rg (radius of gyration): SEC-SAXS, Guinier approximation; on all read-outs here: values in Å
Description: Plg was isolated and purified from human plasma from Red Cross Blood Bank Australia via three-step purification as previously described. Plg GI and GII were prepared with a TXA gradient (Figure S3). Closed Plg was prepared via exhaustive dialysis of purified protein into the assay buffer (100 mM sodium phosphate pH 7.4, 5% glycerol). Proteins were concentrated to 1 mg/mL in centrifugal filters (Merck Millipore, Burlington, MA, USA). The final filtrate was kept as a solvent blank for SAXS experiments.
Experiments were performed at the Australian Synchrotron SAXS/WAXS beamline using a fixed energy of 12 keV and a camera length of 2.6 m.
as §3
Averaged SAXS data were processed with the ATSAS 2.7.2 software package (EMBL Hamburg, Germany). PRIMUS [33] was used for determining the radius of gyration (Rg) and protein molecular weight via Guinier approximation and the particle distance distribution function P(r) using indirect Fourier transform.

[4] = open conformation, 10 mM EACA (Figure 1)

398NPSAPRELKEQQDSPGNKDFLQSLKGFPRGDKLFGPDLKLVPPMEEDYPQFGSPK452 [NK55, peptide corresponding to the last 55 residues of α2AP]
Plg conformational change (efficacy in words) (Plg GII; Plg GII): confers a higher efficiency in inducing conformational change | more efficacious than CK10 (Kopen) (Plg GII; Plg GII, versus CK10): ~ 10 fold | more efficacious than L-lysine (Kopen) (Plg GII; Plg GII, versus L-lysine): ~ 100 fold | Kopen (Plg GII): 0.08 ± 0.05 mM

441MEEDYPQFGSPK452 [MK12, peptide corresponding to the last 12 residues of α2AP]
Plg conformational change (efficacy in words) (Plg GII; Plg GII): did not observe any change in the SAXS profile of Plg GII; also recorded: could not detect any conformational change; also recorded: did not induce a conformational transition even at 10 mM; also recorded: not functional

NCCCCCC(=O)O [EACA, ε-aminocaproic acid]
Kopen of EACA relative to TXA, GI (Plg GI; Plg GI, EACA versus TXA): ~ 3 fold | Kopen (Plg GI): 0.20 ± 0.01 mM | Kactivation higher than Kopen (Plg): > 8 fold | plasma concentration at therapeutic dosage [1]: ~ 10 mM | Kopen (previously reported) [2]: 0.45 mM | Hill slope (Plg GII; EACA titration 0–20 mM, Plg GII, positive cooperativity): 1.5 | Fold (GII/GI) of Kopen (Plg GII): 1.75 | Kopen for GII higher than for GI (Plg GII): ~ 1.75 fold | Kopen of EACA relative to TXA, GII (Plg GII; Plg GII): ~ 3 fold | Kopen of EACA relative to TXA, GII (Plg GII; Plg GII, listed as ε-aminocaproic acid (EACA)): approximately three times greater than that of tranexamic acid (TXA) | Kopen fold lower than L-lysine (Plg GII; Plg GII): 20 fold | Kopen (Plg GII): 0.35 mM and 0.35 ± 0.02 mM

NCCCC[C@H](N)C(=O)O [L-lysine]
Kopen fold relative to CK10 (Plg GII; L-lysine concentration required versus CK10, Plg GII): ~ 10 fold | Kopen fold relative to EACA (Plg GII; L-lysine concentration required versus EACA, Plg GII): more than 20 fold | Plg conformational change (efficacy in words) (Plg GII; Plg GII): poor substrate | Kopen (Plg GII): 7.47 ± 1.12 mM

NC[C@H]1CC[C@H](C(=O)O)CC1 [TXA, tranexamic acid]
Kopen (Plg GI): 0.068 ± 0.002 mM | Kactivation higher than Kopen (Plg): > 3.5 fold | plasma concentration at therapeutic dosage [1]: ~ 1 mM | Fold (GII/GI) of Kopen (Plg GII): 1.76 | Kopen for GII higher than for GI (Plg GII): ~ 1.75 fold | Plg conformational change (efficacy in words) (Plg GII; Plg GII): most efficacious ligand | Kopen fold lower than L-lysine (Plg GII; Plg GII): 60 fold | Kopen (Plg GII): 0.12 ± 0.008 mM

C139EQSKLFDSK147 [CK10, synthetic peptide corresponding to a C-terminal peptide of Plg-RKT]
Plg conformational change (efficacy in words) (Plg GII; Plg GII): highly efficacious | Kopen (Plg GII): 0.73 ± 0.24 mM

Plg GII: human plasminogen glycoform II, purified from human plasma
Dmax (maximum diameter) ([3]; closed conformation (Figure 1)): 105 Å | Dmax (maximum diameter) [3, 4]: 170 Å | diameter of approximate spheroidal particle ([3]; Porod plot, closed conformation): ~78 Å | Rg of closed Plg ([3]; SEC-SAXS comparison of closed GI and GII (Figure 5)): 31.8 ± 0.6 Å | Rg (radius of gyration) ([3]; closed conformation (Figure 1)): 31.7 ± 0.11 Å | Rg (radius of gyration) [3, 4]: 48.8 ± 0.9 Å | conformational stability of closed form (Plg GII; GII versus GI, from Kopen of EACA and TXA, listed as GII): more stable than that of GI | Rg (Plg GII; 0 mM EACA, defined as closed): 32 Å | Rg (Plg GII; 20 mM EACA, defined as open): 49 Å
